What was measured:
[1] = tested on: human immunodeficiency virus (HIV); conditions: Chao et al., J. Biol. Chem. 2000; cited from earlier work
[2] = tested on: Moloney murine leukemia virus (MLV); conditions: background statement; cited from earlier work
HMG I-C protein = assay: Western blot of HMG I-C protein in siRNA-treated Magi cells; type: cell-based; conditions: Magi cells lysed 48-60 hours after transfection; versus luciferase siRNA control
HIV-1 = conditions: siRNA-transfected Magi cells; versus Scramble siRNA control
Method: Magi cells were transiently transfected with an siRNA targeting Pbx1 or Pin1. A Scramble siRNA was used as a negative control. Reverse transcriptase activity was then assessed.
Magi indicator cells were also used to determine the effect of HMG I proteins on the transcription of retroviral genes. Magi cells were transiently transfected with an siRNA targeting HMG I-C or HMG I/Y. A Scramble siRNA was used as a negative control. […] For the western blot analysis, cells were transiently transfected with the siRNAs targeting HMGI/Y (FIG. 9), HMG I-C (FIG. 10) or firefly luciferase (control siRNA). Magi cells were lysed 48-60 hours after transfection and analyzed by western blot using antibodies against HMGI/Y, HMG I-C or γ-tubulin proteins. The γ-tubulin levels were used as the loading controls.

[3] = tested on: HIV-1 LTR-driven β-gal reporter in Magi cells; assay: Magi indicator cell β-galactosidase assay (HIV LTR-mediated gene expression); type: cell-based; conditions: Magi cells transiently transfected with siRNA; versus Scramble siRNA control
Text: (§1) The ability of Pbx 1 to mediate transcription of genes of retroviruses that infect human cells was investigated using Magi indicator cells (e.g., Kimpton and Emerman, J. Virol. 66: 2232-2239, 1992). The MAGI (Multinuclear Activation of a Galactosidase Indicator) cell line was derived from parental HeLa cells by introducing genes for CD4 and an HIV-1 LTR-driven β-gal reporter with an amphotropic retrovirus vector. This cell line exploits the ability of HIV-1 tat to transactivate the expression of a β-galactosidase reporter gene driven by the HIV-LTR. […] The β-galactosidase activity was then assessed in the cultures. […] Western blot analysis of Pbx1 siRNA-transfected Magi cells confirmed that levels of Pbx1 protein were reduced in comparison to control cells transfected with firefly luciferase siRNA, which served as a negative control (FIG. 2). […] The γ-tubulin was used as the loading control.

recombinant HIV = assay: Recombinant HIV assay, luciferase reporter in 293T cells; type: cell-based, HIV-1; conditions: 293T cells transfected with siRNA, infected with recombinant HIV after 24 hours, measured after 48 hrs; versus Scramble siRNA
Method: A recombinant HIV assay was used to assess the role of HMG I proteins in HIV replication. Pseudotyped recombinant HIV particles were generated by transient transfection of 293T cells using a three-plasmid expression system (FIGS. 5a and 5b).
A Scramble siRNA was used as a negative control After 24 hours, the transfected cells were infected with recombinant HIV. After 48 hrs, luciferase activity was measured.

Pbx1 protein = assay: Western blot of Pbx1 protein in siRNA-transfected Magi cells; type: cell-based; conditions: Magi cells lysed 48-60 hours after transfection; versus firefly luciferase siRNA control
Text: as §1

HMG I/Y protein = assay: Western blot of HMG I/Y protein in siRNA-treated Magi cells; type: cell-based; conditions: Magi cells lysed 48-60 hours after transfection; versus luciferase siRNA control

| Compound | MLV transcription events [2] | activity of HIV reverse transcriptase (HIV-1) | β-gal activity [3] | further results |
| --- | --- | --- | --- | --- |
| CN1CC[C@H](c2c(O)cc(O)c3c(=O)cc(-c4ccccc4Cl)oc23)[C@H](O)C1 [flavopiridol] | block |  |  | anti-HIV activity [1]: very potent |
| CC(C)[C@H](CO)Nc1nc(Nc2cccc(Cl)c2)c2ncn(C(C)C)c2n1 [purvalanol A] | block |  |  |  |
| AAGCAGCUCAAAAGAAAGCAG (chemistry not given here) [HMG I-C] |  | reduced | inhibited | levels of HMG I-C protein (HMG I-C protein): reduced; luciferase reporter activity (recombinant HIV): reduced |
| AAGCCUGCCUUGUUUAAUGUG (chemistry not given here) [Pbx1 siRNA] |  | greatly reduced | reduced | levels of Pbx1 protein (Pbx1 protein): reduced |
| AAGUGCCAACACCUAAGAGAC (chemistry not given here) [HMG I/Y] |  | reduced | inhibited | levels of HMG I/Y protein (HMG I/Y protein): reduced |
| methoxy-roscovitine | block |  |  |  |
